Test results from ChEMBL document CHEMBL1149823, “Identification of genotype-correlated sensitivity to selective kinase inhibitors by using high-throughput tumor cell line profiling” (Proc Natl Acad Sci U S A, 2007).

Assays:
[1] = Inhibition of Mek
[2] = molecular target: T1, Vascular endothelial growth factor receptor 2 (Homo sapiens, UniProt P35968)
Description: Inhibition of VEGFR2 by cellular assay

[3] = Inhibition of PDGF
[4] = Cytotoxicity against human Hs 707(A).T cells assessed as fraction of viable cells after 72 hrs relative to control; assay type: functional
SNU1 = assay: Cytotoxicity against human SNU1 cells assessed as fraction of viable cells after 72 hrs relative to control; assay type: functional
IMR-90 = assay: Cytotoxicity against human IMR90 cells assessed as fraction of viable cells after 72 hrs relative to control; assay type: functional
MG-63 = assay: Cytotoxicity against human MG63 cells assessed as fraction of viable cells after 72 hrs relative to control; assay type: functional
SNU-5 = assay: Cytotoxicity against human SNU5 cells assessed as fraction of viable cells after 72 hrs relative to control; assay type: functional
[5] = Cytotoxicity against human G-292 Clone A141B1 cells assessed as fraction of viable cells after 72 hrs relative to control; assay type: functional
[6] = molecular target: Platelet-derived growth factor receptor beta (Homo sapiens, UniProt P09619)
Description: Inhibition of PDGFRbeta by cellular assay

[7] = molecular target: Fibroblast growth factor receptor 1 (Homo sapiens, UniProt P11362)
Description: Inhibition of FGFR1 by cellular assay

[8] = molecular target: Platelet-derived growth factor receptor alpha (Homo sapiens, UniProt P16234)
Description: Inhibition of PDGFRalpha by cellular assay

[9] = molecular target: Hepatocyte growth factor receptor (Homo sapiens, UniProt P08581); assay: Inhibition of Met by cellular assay
[10] = molecular target: Tyrosine-protein kinase Lck (Homo sapiens, UniProt P06239)
Description: Inhibition of Lck by cellular assay

[11] = molecular target: T1, Vascular endothelial growth factor receptor 2; remark: listed apart in the source
Description: Inhibition of KDR by cellular assay

Ephrin type-A receptor 3 = Ephrin type-A receptor 3 (Homo sapiens, UniProt P29320); assay: Inhibition of EphA3 by cellular assay
[12] = molecular target: Tyrosine-protein kinase ZAP-70 (Homo sapiens, UniProt P43403); assay: Inhibition of ZAP70 by cellular assay
[13] = molecular target: Receptor-type tyrosine-protein kinase FLT3 (Homo sapiens, UniProt P36888)
Description: Inhibition of FLT3 by cellular assay

[14] = molecular target: Proto-oncogene tyrosine-protein kinase Src (Homo sapiens, UniProt P12931); assay: Inhibition of Src by cellular assay; assay type: functional
[15] = molecular target: Fibroblast growth factor receptor 3 (Homo sapiens, UniProt P22607)
[16] = molecular target: Proto-oncogene tyrosine-protein kinase receptor Ret (Homo sapiens, UniProt P07949)
Description: Inhibition of Ret by cellular assay

Ephrin type-B receptor 4 = Ephrin type-B receptor 4 (Homo sapiens, UniProt P54760); assay: Inhibition of EphB4 by cellular assay
Angiopoietin-1 receptor = Angiopoietin-1 receptor (Homo sapiens, UniProt Q02763)
Description: Inhibition of Tie2 by cellular assay

[17] = molecular target: ALK tyrosine kinase receptor (Homo sapiens, UniProt Q9UM73)
Description: Inhibition of ALK by cellular assay

Insulin receptor = Insulin receptor (Homo sapiens, UniProt P06213)
Description: Inhibition of InsR by cellular assay

[18] = molecular target: Vascular endothelial growth factor receptor 1 (Homo sapiens, UniProt P17948)
Description: Inhibition of Flt1 by cellular assay

[19] = molecular target: Mast/stem cell growth factor receptor Kit (Homo sapiens, UniProt P10721)
Description: Inhibition of c-Kit by cellular assay

[20] = molecular target: Non-receptor tyrosine-protein kinase TYK2 (Homo sapiens, UniProt P29597); assay: Inhibition of Tyk2 by cellular assay
[21] = molecular target: High affinity nerve growth factor receptor (Homo sapiens, UniProt P04629)
[22] = molecular target: Macrophage-stimulating protein receptor (Homo sapiens, UniProt Q04912)

T1 sequence (P35968 whole entry): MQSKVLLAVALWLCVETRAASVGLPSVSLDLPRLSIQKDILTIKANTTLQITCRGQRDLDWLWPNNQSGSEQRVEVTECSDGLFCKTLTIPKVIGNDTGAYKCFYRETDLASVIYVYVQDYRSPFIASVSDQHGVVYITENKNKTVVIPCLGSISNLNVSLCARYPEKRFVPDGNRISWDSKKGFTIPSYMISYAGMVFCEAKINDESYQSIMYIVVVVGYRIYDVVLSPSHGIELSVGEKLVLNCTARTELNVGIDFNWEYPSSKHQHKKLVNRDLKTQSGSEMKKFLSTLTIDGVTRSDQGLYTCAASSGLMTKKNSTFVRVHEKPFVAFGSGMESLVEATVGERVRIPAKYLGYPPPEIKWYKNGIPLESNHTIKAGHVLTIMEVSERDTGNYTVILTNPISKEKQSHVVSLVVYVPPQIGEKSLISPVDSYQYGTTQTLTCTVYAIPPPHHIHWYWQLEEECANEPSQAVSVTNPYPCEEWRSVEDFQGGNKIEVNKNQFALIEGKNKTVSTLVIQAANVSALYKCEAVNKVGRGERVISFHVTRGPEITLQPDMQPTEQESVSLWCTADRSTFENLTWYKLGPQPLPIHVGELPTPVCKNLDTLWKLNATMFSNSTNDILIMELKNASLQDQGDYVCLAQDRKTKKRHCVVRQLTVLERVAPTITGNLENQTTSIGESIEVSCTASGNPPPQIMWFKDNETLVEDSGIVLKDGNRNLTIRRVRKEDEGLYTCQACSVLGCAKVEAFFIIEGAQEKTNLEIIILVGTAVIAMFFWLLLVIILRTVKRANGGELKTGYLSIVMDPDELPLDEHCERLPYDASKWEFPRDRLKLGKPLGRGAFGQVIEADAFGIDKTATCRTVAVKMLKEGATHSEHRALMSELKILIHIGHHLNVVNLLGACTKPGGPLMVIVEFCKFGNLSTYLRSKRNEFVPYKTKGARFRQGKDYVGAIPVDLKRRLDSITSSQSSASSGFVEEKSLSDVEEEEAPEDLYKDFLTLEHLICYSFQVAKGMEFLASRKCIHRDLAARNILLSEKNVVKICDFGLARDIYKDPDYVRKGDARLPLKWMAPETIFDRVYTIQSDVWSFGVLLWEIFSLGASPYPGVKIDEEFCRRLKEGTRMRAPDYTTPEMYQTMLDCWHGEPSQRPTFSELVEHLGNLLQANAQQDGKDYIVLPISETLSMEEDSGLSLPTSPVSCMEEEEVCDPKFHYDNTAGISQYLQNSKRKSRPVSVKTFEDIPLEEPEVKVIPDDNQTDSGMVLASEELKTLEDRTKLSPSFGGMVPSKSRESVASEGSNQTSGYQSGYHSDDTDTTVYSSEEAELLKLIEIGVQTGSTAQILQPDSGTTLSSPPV
Sequence of Platelet-derived growth factor receptor alpha (P16234 whole entry): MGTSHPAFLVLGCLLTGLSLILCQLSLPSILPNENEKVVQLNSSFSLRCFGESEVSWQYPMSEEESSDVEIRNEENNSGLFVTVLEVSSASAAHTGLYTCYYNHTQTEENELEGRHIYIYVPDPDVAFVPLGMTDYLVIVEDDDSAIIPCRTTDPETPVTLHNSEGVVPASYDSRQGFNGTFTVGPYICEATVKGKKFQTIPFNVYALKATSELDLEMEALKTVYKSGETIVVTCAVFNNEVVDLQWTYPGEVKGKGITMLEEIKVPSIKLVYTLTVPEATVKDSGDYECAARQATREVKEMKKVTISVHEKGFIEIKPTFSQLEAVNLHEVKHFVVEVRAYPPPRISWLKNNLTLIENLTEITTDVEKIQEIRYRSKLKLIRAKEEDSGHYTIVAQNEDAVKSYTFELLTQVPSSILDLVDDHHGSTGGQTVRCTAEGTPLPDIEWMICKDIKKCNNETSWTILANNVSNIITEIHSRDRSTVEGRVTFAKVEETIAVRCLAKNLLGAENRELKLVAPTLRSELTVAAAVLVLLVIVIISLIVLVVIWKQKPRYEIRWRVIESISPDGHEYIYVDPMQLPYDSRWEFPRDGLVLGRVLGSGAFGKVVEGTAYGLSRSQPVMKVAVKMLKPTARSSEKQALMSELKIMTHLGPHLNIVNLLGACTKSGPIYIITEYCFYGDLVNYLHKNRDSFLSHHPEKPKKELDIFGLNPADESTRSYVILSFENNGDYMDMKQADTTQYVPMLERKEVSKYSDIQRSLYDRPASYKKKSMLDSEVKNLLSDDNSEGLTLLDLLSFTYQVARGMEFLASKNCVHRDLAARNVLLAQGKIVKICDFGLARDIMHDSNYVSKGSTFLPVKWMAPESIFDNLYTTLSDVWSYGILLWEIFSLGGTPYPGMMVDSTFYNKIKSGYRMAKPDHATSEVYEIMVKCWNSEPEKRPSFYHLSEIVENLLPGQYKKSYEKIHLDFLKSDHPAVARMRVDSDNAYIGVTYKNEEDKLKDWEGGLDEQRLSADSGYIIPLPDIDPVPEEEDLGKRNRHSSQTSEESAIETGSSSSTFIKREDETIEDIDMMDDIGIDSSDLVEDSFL
Sequence of Receptor-type tyrosine-protein kinase FLT3 (P36888 whole entry): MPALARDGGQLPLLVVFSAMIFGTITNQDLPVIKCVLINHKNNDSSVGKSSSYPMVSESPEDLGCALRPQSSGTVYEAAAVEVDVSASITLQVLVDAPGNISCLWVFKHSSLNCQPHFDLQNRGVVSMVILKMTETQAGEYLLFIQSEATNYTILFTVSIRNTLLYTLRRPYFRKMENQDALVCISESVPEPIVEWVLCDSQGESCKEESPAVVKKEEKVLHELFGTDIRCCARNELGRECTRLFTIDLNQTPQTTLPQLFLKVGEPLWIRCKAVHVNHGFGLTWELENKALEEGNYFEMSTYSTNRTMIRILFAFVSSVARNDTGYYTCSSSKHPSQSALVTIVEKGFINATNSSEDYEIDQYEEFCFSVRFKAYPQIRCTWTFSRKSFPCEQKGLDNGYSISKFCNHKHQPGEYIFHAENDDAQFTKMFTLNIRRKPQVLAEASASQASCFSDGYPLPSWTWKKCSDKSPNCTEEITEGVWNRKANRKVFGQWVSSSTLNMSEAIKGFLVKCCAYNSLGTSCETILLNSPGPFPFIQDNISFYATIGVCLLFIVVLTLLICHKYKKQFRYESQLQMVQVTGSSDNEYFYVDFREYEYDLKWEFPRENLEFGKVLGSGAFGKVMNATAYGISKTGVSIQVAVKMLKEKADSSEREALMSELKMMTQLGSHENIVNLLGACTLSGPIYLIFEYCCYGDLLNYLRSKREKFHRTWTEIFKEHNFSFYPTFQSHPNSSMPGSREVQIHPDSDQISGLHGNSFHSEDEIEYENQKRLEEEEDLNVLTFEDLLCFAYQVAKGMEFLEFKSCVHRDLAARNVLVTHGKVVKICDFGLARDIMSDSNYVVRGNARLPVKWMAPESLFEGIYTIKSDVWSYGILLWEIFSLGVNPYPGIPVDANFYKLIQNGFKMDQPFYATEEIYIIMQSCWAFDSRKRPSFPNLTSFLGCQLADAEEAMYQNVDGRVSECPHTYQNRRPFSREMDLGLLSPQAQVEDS
Sequence of Hepatocyte growth factor receptor (P08581 whole entry): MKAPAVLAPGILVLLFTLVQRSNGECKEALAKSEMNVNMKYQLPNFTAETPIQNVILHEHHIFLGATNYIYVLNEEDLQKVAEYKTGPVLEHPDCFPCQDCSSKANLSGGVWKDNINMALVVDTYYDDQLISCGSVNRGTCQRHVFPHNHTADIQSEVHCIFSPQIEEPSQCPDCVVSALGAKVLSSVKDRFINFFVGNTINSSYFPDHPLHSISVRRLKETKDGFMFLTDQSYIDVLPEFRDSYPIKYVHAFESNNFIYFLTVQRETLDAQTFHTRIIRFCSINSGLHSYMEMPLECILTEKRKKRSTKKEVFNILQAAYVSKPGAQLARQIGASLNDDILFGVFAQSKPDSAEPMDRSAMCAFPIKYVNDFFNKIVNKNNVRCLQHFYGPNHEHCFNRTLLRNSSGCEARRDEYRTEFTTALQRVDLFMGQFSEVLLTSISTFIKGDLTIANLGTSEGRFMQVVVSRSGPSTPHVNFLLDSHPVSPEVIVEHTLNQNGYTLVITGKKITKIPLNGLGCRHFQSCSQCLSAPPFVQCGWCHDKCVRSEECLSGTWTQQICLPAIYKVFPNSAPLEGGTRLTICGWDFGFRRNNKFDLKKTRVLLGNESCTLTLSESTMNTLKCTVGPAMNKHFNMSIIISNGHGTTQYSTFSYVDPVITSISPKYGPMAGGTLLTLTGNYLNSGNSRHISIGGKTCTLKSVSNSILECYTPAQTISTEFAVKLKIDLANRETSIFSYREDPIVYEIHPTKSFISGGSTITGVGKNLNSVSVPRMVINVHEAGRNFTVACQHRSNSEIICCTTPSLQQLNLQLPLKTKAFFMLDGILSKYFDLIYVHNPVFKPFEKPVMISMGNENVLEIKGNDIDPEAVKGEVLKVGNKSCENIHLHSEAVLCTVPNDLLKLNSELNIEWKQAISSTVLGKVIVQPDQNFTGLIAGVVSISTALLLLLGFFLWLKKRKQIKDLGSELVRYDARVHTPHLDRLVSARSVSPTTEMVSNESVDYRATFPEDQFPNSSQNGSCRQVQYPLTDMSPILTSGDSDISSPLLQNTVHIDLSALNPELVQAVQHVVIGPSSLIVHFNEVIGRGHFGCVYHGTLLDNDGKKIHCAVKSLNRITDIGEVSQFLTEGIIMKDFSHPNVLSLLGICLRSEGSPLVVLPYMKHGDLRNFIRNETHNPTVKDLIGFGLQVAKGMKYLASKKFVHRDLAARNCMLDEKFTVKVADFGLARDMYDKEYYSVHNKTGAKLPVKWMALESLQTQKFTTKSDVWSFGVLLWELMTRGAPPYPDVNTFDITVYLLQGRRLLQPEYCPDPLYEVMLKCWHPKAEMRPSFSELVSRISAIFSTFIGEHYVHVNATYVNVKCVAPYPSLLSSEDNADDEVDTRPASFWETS
Description for cells: Inhibition of Bcr-abl by cellular assay

CCN(CC)CCCCNc1ncc2cc(-c3cc(OC)cc(OC)c3)c(NC(=O)NC(C)(C)C)nc2n1 [PD-173074]
IC50 [1]: > 50 µM
EC50 [2]: 0.25 µM
IC50 [3]: 19 µM

CC#CC(=O)Nc1ccc2ncnc(Nc3cccc(Br)c3)c2c1
Activity [4]: 1.31
Activity (SNU1): 1.135
Activity (IMR-90): 0.854
Activity (MG-63): 0.97
Activity (SNU-5): 1.244
Activity [5]: 1.024

Cc1ccc(NC(=O)c2cccc(C(F)(F)F)c2)cc1N1Cc2cnc(N)nc2N(C)C1=O
EC50 [6]: 0.006 µM
EC50 [7]: 0.08 µM
EC50 [8]: 0.004 µM
EC50 [9]: > 2 µM
EC50 (cells): 0.003 µM
EC50 [10]: 0.005 µM
EC50 [11]: 0.022 µM
EC50 (Ephrin type-A receptor 3): 0.002 µM
EC50 [12]: > 2 µM
EC50 [13]: > 2 µM
EC50 [14]: 0.013 µM
IC50 [15]: 0.013 µM
EC50 [16]: 0.077 µM
EC50 (Ephrin type-B receptor 4): 0.004 µM
EC50 (Angiopoietin-1 receptor): 0.2 µM
EC50 [17]: > 2 µM
EC50 (Insulin receptor): > 2 µM
EC50 [18]: 0.236 µM
EC50 [19]: 0.004 µM
EC50 [20]: > 2 µM
EC50 [21]: > 2 µM
EC50 [22]: > 2 µM
